Data from ChEMBL document CHEMBL5233215, “Recent developments of chalcones as potential antibacterial agents in medicinal chemistry” (Eur J Med Chem, 2020).
pIC50: −log10 of the molar value. Converted amounts (≈) assume the structure as drawn.

Legend:
Bacillus subtilis [1] = experiment: Antibacterial activity Bacillus subtilis NBRC 3757 assessed as inhibition of bacterial growth after 48 hrs by two fold dilution method; format: functional
[2] = test system: Staphylococcus epidermidis; experiment: Antibacterial activity Staphylococcus epidermidis NBRC 12993 assessed as inhibition of bacterial growth after 48 hrs by two fold dilution method; format: functional
Micrococcus luteus = experiment: Antibacterial activity Micrococcus luteus NBRC 333 assessed as inhibition of bacterial growth after 48 hrs by two fold dilution method; format: functional
Staphylococcus aureus [3] = experiment: Antibacterial activity methicillin-sensitive Staphylococcus aureus ATCC 25923 assessed as inhibition of bacterial growth after 24 hrs by NCCLS protocol based microdilution method; format: functional
Staphylococcus aureus [4] = experiment: Antibacterial activity methicillin-resistant Staphylococcus aureus ATCC 44330 assessed as inhibition of bacterial growth after 24 hrs by NCCLS protocol based microdilution method; format: functional
Staphylococcus aureus [5] = experiment: Antibacterial activity methicillin-sensitive Staphylococcus aureus ATCC 29213 assessed as inhibition of bacterial growth by CLSI based microbroth dilution assay; format: functional
Staphylococcus aureus [6] = experiment: Antibacterial activity methicillin-resistant Staphylococcus aureus USA300 assessed as inhibition of bacterial growth by CLSI based microbroth dilution assay; format: functional
Bacillus anthracis = experiment: Antibacterial activity Bacillus anthracis Sterne 34F2 assessed as inhibition of bacterial growth by CLSI based microbroth dilution assay; format: functional
Staphylococcus aureus [7] = experiment: Antibacterial activity Staphylococcus aureus ATCC 25923 assessed as inhibition of bacterial growth incubated for 16 hrs by CLSI protocol based microdilution method; format: functional
Staphylococcus aureus [8] = experiment: Antibacterial activity methicillin-resistant Staphylococcus aureus ATCC 700699 assessed as inhibition of bacterial growth incubated for 16 hrs by CLSI protocol based microdilution method; format: functional
Staphylococcus aureus [9] = experiment: Antibacterial activity Staphylococcus aureus ATCC 29213 assessed as inhibition of bacterial growth incubated for 16 hrs by CLSI protocol based microdilution method; format: functional
Staphylococcus aureus [10] = experiment: Antibacterial activity Staphylococcus aureus ATCC 33592 assessed as inhibition of bacterial growth incubated for 16 hrs by CLSI protocol based microdilution method; format: functional
Staphylococcus aureus [11] = experiment: Antimicrobial activity against Staphylococcus aureus assessed as bacterial growth inhibition incubated for 18 hrs by broth micro dilution method; format: functional
Escherichia coli [12] = experiment: Antimicrobial activity against Escherichia coli assessed as bacterial growth inhibition incubated for 18 hrs by broth micro dilution method; format: functional
Salmonella typhimurium = experiment: Antimicrobial activity against Salmonella typhimurium assessed as bacterial growth inhibition incubated for 18 hrs by broth micro dilution method; format: functional, Salmonella enterica subsp. enterica serovar Typhimurium; details: Salmonella enterica
Streptococcus pyogenes [13] = experiment: Antimicrobial activity against Streptococcus pyogenes assessed as bacterial growth inhibition incubated for 18 hrs by broth micro dilution method
Staphylococcus aureus [14] = experiment: Antibacterial activity methicillin-resistant Staphylococcus aureus MRSA ST-1745 assessed as inhibition of bacterial growth incubated for 16 to 24 hrs by broth microdilution assay; format: functional; details: time 16-24 hrs
Staphylococcus aureus [15] = experiment: Antibacterial activity methicillin-resistant Staphylococcus aureus MRSA ST-2071 assessed as inhibition of bacterial growth incubated for 16 to 24 hrs by broth microdilution assay; format: functional; details: time 16-24 hrs
Staphylococcus aureus [16] = experiment: Antibacterial activity methicillin-resistant Staphylococcus aureus MRSA ST-2438 assessed as inhibition of bacterial growth incubated for 16 to 24 hrs by broth microdilution assay; format: functional; details: time 16-24 hrs
Staphylococcus aureus [17] = experiment: Antibacterial activity methicillin-resistant Staphylococcus aureus MRSA B-10732 assessed as inhibition of bacterial growth incubated for 16 to 24 hrs by broth microdilution assay; format: functional; details: time 16-24 hrs
Staphylococcus aureus [18] = experiment: Antibacterial activity methicillin-resistant Staphylococcus aureus MRSA P-8029 assessed as inhibition of bacterial growth incubated for 16 to 24 hrs by broth microdilution assay; format: functional; details: time 16-24 hrs
Staphylococcus aureus [19] = experiment: Antibacterial activity methicillin-resistant Staphylococcus aureus MRSA ST-5457 assessed as inhibition of bacterial growth incubated for 16 to 24 hrs by broth microdilution assay; format: functional; details: time 16-24 hrs
Staphylococcus aureus [20] = experiment: Antibacterial activity methicillin-resistant Staphylococcus aureus MRSA ST-10342 assessed as inhibition of bacterial growth incubated for 16 to 24 hrs by broth microdilution assay; format: functional; details: time 16-24 hrs
Staphylococcus aureus [21] = experiment: Antibacterial activity methicillin-resistant Staphylococcus aureus MRSA B-10760 assessed as inhibition of bacterial growth incubated for 16 to 24 hrs by broth microdilution assay; format: functional; details: time 16-24 hrs
Staphylococcus aureus [22] = experiment: Antibacterial activity methicillin-resistant Staphylococcus aureus MRSA ST-3151 assessed as inhibition of bacterial growth incubated for 16 to 24 hrs by broth microdilution assay; format: functional; details: time 16-24 hrs
Staphylococcus aureus [23] = experiment: Antibacterial activity methicillin-resistant Staphylococcus aureus MRSA P-6642 assessed as inhibition of bacterial growth incubated for 16 to 24 hrs by broth microdilution assay; format: functional; details: time 16-24 hrs
Staphylococcus aureus [24] = experiment: Antibacterial activity Staphylococcus aureus assessed as inhibition of bacterial growth by […] dye based colorimetric method; format: functional
Streptococcus pyogenes [25] = experiment: Antibacterial activity Streptococcus pyogenes assessed as inhibition of bacterial growth by […] dye based colorimetric method; format: functional
Escherichia coli [26] = experiment: Antibacterial activity Escherichia coli assessed as inhibition of bacterial growth by […] dye based colorimetric method; format: functional
DNA gyrase = DNA gyrase (Staphylococcus aureus, UniProt P0A0K8+P20831); experiment: Inhibition of Staphylococcus aureus DNA gyrase; format: protein-complex assay
Escherichia coli [27] = experiment: Antimicrobial activity against Escherichia coli MTCC 1573 assessed as bacterial growth inhibition incubated for 24 hrs by broth micro dilution method; format: functional
Staphylococcus aureus [28] = experiment: Antimicrobial activity against Staphylococcus aureus MTCC 1430 assessed as bacterial growth inhibition incubated for 24 hrs by broth micro dilution method; format: functional
Pseudomonas aeruginosa [29] = experiment: Antimicrobial activity against Pseudomonas aeruginosa MTCC 424 assessed as bacterial growth inhibition incubated for 24 hrs by broth micro dilution method; format: functional
Bacillus subtilis [30] = experiment: Antimicrobial activity against Bacillus subtilis MTCC 441 assessed as bacterial growth inhibition incubated for 24 hrs by broth micro dilution method; format: functional
Pseudomonas aeruginosa [31] = experiment: Antibacterial activity Pseudomonas aeruginosa Ps12 assessed as inhibition of bacterial growth incubated for 24 hrs by microbroth dilution assay; format: functional
Klebsiella pneumoniae = experiment: Antibacterial activity Klebsiella pneumoniae K4 assessed as inhibition of bacterial growth incubated for 24 hrs by microbroth dilution assay; format: functional
DNA = experiment: Binding affinity to DNA (unknown origin) assessed as DNA intercalation by measuring amount of methyl green dye replaced from DNA-methyl green complex after 24 hrs by colourimetric assay; format: nucleic-acid assay
[32] = test system: Mycobacterium tuberculosis; experiment: Antimycobacterial activity against Mycobacterium tuberculosis H37Rv CNCTC My 331/88 assessed as bacterial growth inhibition incubated for 5 days by resazurin dye based assay; format: functional; details: H37Rv CNCTC My 331/88, 120 h, time 5 day
Mycobacterium kansasii = experiment: Antimycobacterial activity against Mycobacterium kansasii CNCTC My 235/80 assessed as bacterial growth inhibition incubated for 5 days by resazurin dye based assay; format: functional; details: CNCTC My 235/80, 120 h, time 5 day
[33] = test system: Mycolicibacterium smegmatis; experiment: Antimycobacterial activity against Mycobacterium smegmatis ATCC 607 assessed as bacterial growth inhibition incubated for 48 hrs by resazurin dye based assay; format: functional

Chain of DNA gyrase (P0A0K8 whole entry): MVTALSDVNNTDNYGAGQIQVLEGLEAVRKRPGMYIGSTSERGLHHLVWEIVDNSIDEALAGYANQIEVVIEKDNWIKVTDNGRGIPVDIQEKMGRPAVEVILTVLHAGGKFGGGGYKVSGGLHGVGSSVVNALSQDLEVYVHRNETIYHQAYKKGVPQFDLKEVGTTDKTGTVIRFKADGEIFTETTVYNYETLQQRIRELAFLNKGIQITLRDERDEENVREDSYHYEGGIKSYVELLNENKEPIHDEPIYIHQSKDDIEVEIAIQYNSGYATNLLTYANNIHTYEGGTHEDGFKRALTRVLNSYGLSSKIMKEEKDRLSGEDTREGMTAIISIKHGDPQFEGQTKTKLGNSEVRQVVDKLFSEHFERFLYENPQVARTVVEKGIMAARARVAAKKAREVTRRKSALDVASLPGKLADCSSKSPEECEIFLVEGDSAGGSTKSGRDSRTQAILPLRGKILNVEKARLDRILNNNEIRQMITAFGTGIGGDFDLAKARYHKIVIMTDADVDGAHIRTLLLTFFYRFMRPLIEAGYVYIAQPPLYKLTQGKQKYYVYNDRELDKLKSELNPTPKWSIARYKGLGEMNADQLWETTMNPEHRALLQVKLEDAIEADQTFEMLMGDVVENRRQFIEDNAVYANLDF
Chain of DNA gyrase (P20831 whole entry): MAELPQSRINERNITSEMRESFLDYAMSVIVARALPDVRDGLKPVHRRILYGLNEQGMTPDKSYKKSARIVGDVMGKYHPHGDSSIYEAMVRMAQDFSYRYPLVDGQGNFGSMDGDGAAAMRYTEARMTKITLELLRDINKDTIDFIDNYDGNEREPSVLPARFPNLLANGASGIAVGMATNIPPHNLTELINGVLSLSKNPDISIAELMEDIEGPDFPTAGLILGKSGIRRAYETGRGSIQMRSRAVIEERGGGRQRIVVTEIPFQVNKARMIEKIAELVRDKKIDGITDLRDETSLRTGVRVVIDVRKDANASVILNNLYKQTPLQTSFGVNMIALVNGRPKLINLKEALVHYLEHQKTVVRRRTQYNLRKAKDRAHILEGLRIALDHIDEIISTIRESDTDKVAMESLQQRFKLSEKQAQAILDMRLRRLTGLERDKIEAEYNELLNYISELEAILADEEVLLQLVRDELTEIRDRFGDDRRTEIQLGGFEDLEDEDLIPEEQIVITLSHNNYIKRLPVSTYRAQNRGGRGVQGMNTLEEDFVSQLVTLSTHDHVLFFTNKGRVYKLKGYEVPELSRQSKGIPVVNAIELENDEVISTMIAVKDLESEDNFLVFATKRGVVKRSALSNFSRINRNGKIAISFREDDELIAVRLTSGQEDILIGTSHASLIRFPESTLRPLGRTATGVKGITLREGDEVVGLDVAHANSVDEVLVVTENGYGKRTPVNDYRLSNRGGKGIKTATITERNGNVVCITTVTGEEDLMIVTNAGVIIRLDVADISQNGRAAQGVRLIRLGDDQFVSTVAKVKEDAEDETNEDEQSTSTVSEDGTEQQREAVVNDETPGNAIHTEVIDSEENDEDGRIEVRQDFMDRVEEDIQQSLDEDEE

COc1cc(O)c(C(=O)/C=C/c2ccc(O)cc2)cc1CC=C(C)C
MIC (Bacillus subtilis [1]): 4 µg/mL (≈ 11.8 µM) | MIC [2]: 4 µg/mL (≈ 11.8 µM) | MIC (Micrococcus luteus): 4 µg/mL (≈ 11.8 µM)

O=C(/C=C/c1ccccc1O)c1cccs1
MIC (Staphylococcus aureus [3]): 32 µg/mL (≈ 139 µM) | MIC (Staphylococcus aureus [4]): 64 µg/mL (≈ 278 µM)

O=C(/C=C/c1ccc(N2CCCCC2)cc1)c1ccc(O)cc1O
MIC (Staphylococcus aureus [5]): 3.12 µg/mL (≈ 9.66 µM) | MIC (Staphylococcus aureus [6]): 3.12 µg/mL (≈ 9.66 µM)

COc1ccc(C(=O)/C=C/c2ccc(F)cc2)cc1
MIC (Bacillus anthracis): 12.5 µg/mL (≈ 48.8 µM)

COc1ccc(-c2csc(/N=C/c3cc(/C=C/C(=O)c4ccc(C)cc4)cc(C(C)(C)C)c3O)n2)cc1OC
MIC (Staphylococcus aureus [7]): 5.8 µg/mL (≈ 10.7 µM) | MIC (Staphylococcus aureus [8]): 11.6 µg/mL (≈ 21.5 µM) | MIC (Staphylococcus aureus [9]): 5.8 µg/mL (≈ 10.7 µM) | MIC (Staphylococcus aureus [10]): 1.4 µg/mL (≈ 2.59 µM)

COc1ccc(C(=O)/C=C/c2ccc(O)cc2)c(O)c1CC=C(C)C
MIC (Bacillus subtilis [1]): 2 µg/mL (≈ 5.91 µM) | MIC [2]: 2 µg/mL (≈ 5.91 µM) | MIC (Micrococcus luteus): 2 µg/mL (≈ 5.91 µM)

Cc1cc(C(=O)/C=C/c2c(C)cn(-c3ccccc3)c2C)c(C)s1
MIC (Staphylococcus aureus [11]): 32 µg/mL (≈ 95.4 µM) | MIC (Escherichia coli [12]): 16 µg/mL (≈ 47.7 µM) | MIC (Salmonella typhimurium): 16 µg/mL (≈ 47.7 µM) | MIC (Streptococcus pyogenes [13]): 32 µg/mL (≈ 95.4 µM)

Cc1cc(C(=O)/C=C/c2ccc(Cl)cc2)ccc1O
MIC (Bacillus anthracis): 12.5 µg/mL (≈ 45.8 µM)

COc1ccc(/C=C/C(=O)c2ccc(O)c(C)c2)cc1Br
MIC (Bacillus anthracis): 1.56 µg/mL (≈ 4.49 µM)

O=C(/C=C/c1c[nH]c2ccccc12)c1cccc(OCc2ccccc2)c1
MIC (Staphylococcus aureus [14]): 12.5 µg/mL (≈ 35.4 µM) | MIC (Staphylococcus aureus [15]): 12.5 µg/mL (≈ 35.4 µM) | MIC (Staphylococcus aureus [16]): 12.5 µg/mL (≈ 35.4 µM) | MIC (Staphylococcus aureus [17]): 12.5 µg/mL (≈ 35.4 µM) | MIC (Staphylococcus aureus [18]): 12.5 µg/mL (≈ 35.4 µM) | MIC (Staphylococcus aureus [19]): 12.5 µg/mL (≈ 35.4 µM) | MIC (Staphylococcus aureus [20]): 12.5 µg/mL (≈ 35.4 µM) | MIC (Staphylococcus aureus [21]): 12.5 µg/mL (≈ 35.4 µM) | MIC (Staphylococcus aureus [22]): 12.5 µg/mL (≈ 35.4 µM) | MIC (Staphylococcus aureus [23]): 12.5 µg/mL (≈ 35.4 µM)

Cc1c(Cl)ccc2cc(/C=C/C(=O)c3ccc(Br)cc3)c(Cl)nc12
MIC (Staphylococcus aureus [24]): 125 µg/mL (≈ 297 µM) | MIC (Streptococcus pyogenes [25]): 125 µg/mL (≈ 297 µM) | MIC (Escherichia coli [26]): 125 µg/mL (≈ 297 µM) | pIC50 (DNA gyrase): 6.48

CSc1ccc(/C=C/C(=O)c2nnn(-c3c(C)c(C(F)(F)F)cc(Cl)c3Cl)c2C)cc1
MIC (Escherichia coli [27]): 3.12 µg/mL (≈ 6.42 µM) | MIC (Staphylococcus aureus [28]): 6.25 µg/mL (≈ 12.9 µM) | MIC (Pseudomonas aeruginosa [29]): 12.5 µg/mL (≈ 25.7 µM) | MIC (Bacillus subtilis [30]): 3.12 µg/mL (≈ 6.42 µM)

COc1cc(C(CC(=O)c2ccc(C)cc2)SC(=S)N2CCOCC2)cc(OC)c1OC (stereo not drawn)
MIC (Pseudomonas aeruginosa [31]): 8 µg/mL (≈ 16.8 µM) | MIC (Klebsiella pneumoniae): 8 µg/mL (≈ 16.8 µM)

COc1ccc(C(=O)CC(SC(=S)N2CCOCC2)c2ccc(OC)c(OC)c2)cc1 (stereo not drawn)
MIC (Pseudomonas aeruginosa [31]): 32 µg/mL (≈ 69.3 µM) | MIC (Klebsiella pneumoniae): 32 µg/mL (≈ 69.3 µM) | IC50 (DNA): 27.48 µg/mL (≈ 59.5 µM)

CC(C)(C)c1cnc(C(=O)/C=C/c2ccccc2Cl)cn1
MIC [32]: 3.13 µg/mL (≈ 10.4 µM) | MIC (Mycobacterium kansasii): 25 µg/mL (≈ 83.1 µM) | MIC [33]: 3.9 µg/mL (≈ 13 µM)

COc1cc(C(CC(=O)c2ccc(C)cc2)SC(=S)N2CCN(Cc3ccccc3)CC2)cc(OC)c1OC (stereo not drawn)
MIC (Pseudomonas aeruginosa [31]): 32 µg/mL (≈ 56.7 µM) | MIC (Klebsiella pneumoniae): 64 µg/mL (≈ 113 µM) | IC50 (DNA): 30.97 µg/mL (≈ 54.8 µM)

CC(C)(C)c1cnc(C(=O)/C=C/c2ccccc2F)cn1
MIC [32]: 6.25 µg/mL (≈ 22 µM) | MIC (Mycobacterium kansasii): 12.5 µg/mL (≈ 44 µM) | MIC [33]: > 500 µg/mL
